IC50 data for eight compounds are collected here from patent US11427552B2, “Heterocyclic compounds useful in the treatment of disease” (EPIGEN BIOSCIENCES, INC., priority 2013, dated 2022).

Where only a bound is given, the exact number is not on record here.

In the assay the target is T1, LPA1R (Homo sapiens, UniProt Q92633).
T1 construct: host or cells: LPA1R expressing cells (Millipore, GPCR Profiler)
T1 sequence (Q92633 whole entry): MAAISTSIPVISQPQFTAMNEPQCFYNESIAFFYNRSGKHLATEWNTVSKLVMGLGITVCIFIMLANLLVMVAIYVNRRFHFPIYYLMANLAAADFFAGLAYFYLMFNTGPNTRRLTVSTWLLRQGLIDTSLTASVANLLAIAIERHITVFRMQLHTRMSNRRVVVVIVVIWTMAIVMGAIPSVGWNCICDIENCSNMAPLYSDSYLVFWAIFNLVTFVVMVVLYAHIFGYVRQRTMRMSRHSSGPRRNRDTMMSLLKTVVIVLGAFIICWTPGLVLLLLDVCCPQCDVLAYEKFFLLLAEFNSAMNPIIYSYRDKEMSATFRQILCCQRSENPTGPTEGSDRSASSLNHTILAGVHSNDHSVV
As to the kind of experiment: LPA1R Ca2+ flux functional assay (antagonist mode, FLIPR). The assay is classed as cell-based. The conditions noted are these: inhibition of LPA-stimulated Ca2+ flux, LPA at EC80, LPA1R expressing cells (Millipore); read-out: LPA1 R Antagonist Activity. The method, then: Inhibition of LPA-stimulated Ca^2+ flux was used to assess compound potency using FLIPR technology in a 96 well plate format. The assay buffer used was a modified Hanks Balanced Salt Solution (HBSS) where HBSS was supplemented to contain 20 mM HEPES and 2.5 mM Probenecid at pH7.4 (Millipore, GPCR Profiler®). LPA1R expressing cells (Millipore) were plated and prepared 24 hours prior to assay of test articles. Ca^2+ ion flux was assessed from fluorescence of a Fluo-based No Wash Ca^2+ dye. Antagonist data are generated from plates with LPA concentrations sufficient to generate 80% efficacy [EC80]. Percentage inhibition was calculated from a reduction of efficacy according to concentration of compounds of Formula I-VI. For dose responses the inhibition data was used to calculate compound IC50. The agonist assay was conducted on a FLIPR^TETRA instrument where the test compound(s), vehicle controls, and reference agonist were added to the assay plate after a fluorescence baseline was established. The agonist assay was a total of 180 seconds and was used to assess each compound's ability to activate each GPCR assayed. Upon completion of the agonist assay, the assay plate was removed from the FLIPR^TETRA and incubated at 25° C. for seven (7) minutes. After the incubation period, the assay plate was placed back in the FLIPR^TETRA and the antagonist assay was initiated. Using EC80 potency values determined during the agonist assay, all pre-incubated sample compound wells were challenged with EC80 concentration of reference agonist after establishment of a fluorescence baseline. The antagonist assay was conducted using the same assay plate that was used for the agonist assay. The antagonist assay was conducted on a FLIPR^TETRA instrument where 9 vehicle controls and EC80 concentration of reference agonist were added to appropriate wells. The antagonist assay was a total of 180 seconds and was used to assess each compound's ability to inhibit each GPCR assayed. All assay plate data were subjected to appropriate baseline corrections. After baseline corrections were applied, maximum fluorescence values were exported and data processed to calculate percentage activation (relative to Emax reference agonist and vehicle control values), percentage inhibition (relative to EC80 and vehicle control values), and additional statistical values (i.e. Z′, percentage variation between replicate data values) to assess the quality of each plate. Where assay plate data were rejected, additional experiments were conducted. All dose response curves were generated using GraphPad Prism. The curves were fit by utilizing “Sigmoidal Dose Response (Variable Slope)” equation where the bottom parameter was fixed to “0.” Where appropriate, the top parameter was fixed to “100” to better predict potency values when a full curve was not generated by the concentrations assayed.
For `C[C@@H](OC(=O)Nc1c(F)cnn1-c1ccc(-c2ccc(C3(C(=O)O)CC3)cc2Cl)cc1)c1ccccc1Cl` [Example 51, (R)-1-(2-Chloro-4′-{5-[1-(2-chloro-phenyl)-ethoxycarbonylamino]-4-fluoro-pyrazol-1-yl}-biphenyl-4-yl)-cyclopropanecarboxylic Acid], the IC50 is less than 300 nM. For the compound `Cc1cc(C2(C(=O)O)CC2)ccc1-c1ccc(-n2ncc(F)c2NC(=O)O[C@H](C)c2ccccc2Cl)cc1` [Example 52, (R)-1-(4′-{5-[1-(2-Chloro-phenyl)-ethoxycarbonylamino]-4-fluoro-pyrazol-1-yl}-2-methyl-biphenyl-4-yl)-cyclopropanecarboxylic Acid], the IC50 is less than 300 nM. In the case of `C[C@@H](OC(=O)Nc1c(F)cnn1-c1ccc(-c2ccc(C3(C(=O)O)CC3)cc2)cc1)c1ccccc1Cl` [Example 53, (R)-1-(4′-{5-[1-(2-Chloro-phenyl)-ethoxycarbonylamino]-4-fluoro-pyrazol-1-yl}-biphenyl-4-yl)-cyclopropanecarboxylic Acid] it was less than 300 nM; in that of `C[C@@H](OC(=O)Nc1c(C(F)(F)F)cnn1-c1ccc(-c2ccc(C3(C(=O)O)CC3)cc2)cc1)c1ccccc1` [Example 54, (R)-1-{4′-[5-(1-Phenyl-ethoxycarbonylamino)-4-trifluoromethyl-pyrazol-1-yl]-biphenyl-4-yl}-cyclopropanecarboxylic Acid], 300 to 1000 nM. With `C[C@@H](OC(=O)Nc1c(C(F)(F)F)cnn1-c1ccc(-c2ccc(C3(C(=O)O)CC3)cc2F)cc1)c1ccccc1` [Example 55, (R)-1-{2-Fluoro-4′-[5-(1-phenyl-ethoxycarbonylamino)-4-trifluoromethyl-pyrazol-1-yl]-biphenyl-4-yl}-cyclopropanecarboxylic Acid], the IC50 fell in the range of 300 to 1000 nM. The result for `C[C@@H](OC(=O)Nc1ccnn1-c1ccc(-c2ccc(C3(C(=O)O)CC3)cc2)nc1)c1ccccc1` [Example 56, (R)-1-(4-{5-[5-(1-Phenyl-ethoxycarbonylamino)-pyrazol-1-yl]-pyridin-2-yl}-phenyl)-cyclopropanecarboxylic Acid] reads less than 300 nM; that for “(R)-2-(4-{4-[(R)-1-(2-Chloro-phenyl)-ethoxycarbonylamino]-3-methyl-isoxazol-5-yl}-benzoylamino)-3-phenyl-propionic Acid [Example 20]”, less than 300 nM; that for “(R)-3-(4-bromophenyl)-2-[[4-[1,5-dimethyl-4-((R)-1-phenylethoxycarbonyl-amino)pyrazol-3-yl]benzoyl]amino]propanoic acid [Example 12]”, greater than 50000 nM.
